Experimental data reported in US8728797B2, “Yeast membrane protein expression system and its application in drug screening” (priority 2001, dated 2014).
In brackets after ≈: the same amount, converted by molar mass.

How the values were obtained:
[1] = tested on: S. cerevisiae AD1-8u^− hyper-expressing CDR1-2; assay: MIC, CDR1 allele 2 hyper-expressed; format: cell-based; conditions: Saccharomyces cerevisiae; hyper-expression of CDR1-2 allele
Experimental: (§1) The MICs of antifungal agents for S. cerevisiae cells were determined by a microdilution test based on the macrodilution reference method of the National Committee for Clinical Laboratory Standards. Cells (10 μl cell suspension, 2×10^5 cells/ml) were inoculated into 90 μl CSM-URA, buffered with 10 mM 2-(N-morpholino)ethanesulfonic acid (MES) and 18 mM N-2-hydroxyethylpiperazine-N′-2-ethanesulfonic acid (HEPES), pH 7.0 and containing 0.67% (w/v) yeast nitrogen base (YNB) in microtitre plate wells. For the uracil-requiring strain AD1-8u^− the medium was supplemented with 0.02% (w/v) uridine. The wells contained, in […], doubling dilutions of antifungal agents (final concentrations: fluconazole, 40-0.078 μg/ml; itraconazole and ketoconazole, 8-0.016 μg/ml). The microtitre plates were incubated at 30° C. for 48 h with shaking and then the growth of cells in individual wells (OD590) was measured with a microplate reader (EL 340, Bio-Tek, Winooski, Vt.). The MIC80 was the lowest concentration of drug that inhibited growth yield by at least 80% compared to a no-drug control.

[2] = tested on: S. cerevisiae AD1-8u^−; assay: MIC microdilution test, parental strain; format: cell-based; conditions: Saccharomyces cerevisiae; AD1-8u^− parental strain; 30° C., 48 h, pH 7.0
Experimental: as §1

[3] = tested on: initial construct in AD1-8u^− with barely detectable Cdr1p; assay: MIC, initial defective Cdr1p construct; format: cell-based, S. cerevisiae; conditions: Saccharomyces cerevisiae
Experimental: as §1

[4] = tested on: AD-ERG11 (Erg11p); assay: Disk diffusion assay, AD-ERG11; format: cell-based, S. cerevisiae; conditions: AD-pABC as negative control, 30° C., 48 h
Experimental: The cells were spread on CSM-agar plates and exposed to the drugs or chemicals applied to filter disks and incubated at 30° C. for 48 h. The amounts of individual drugs are given in the Materials and Methods section of Example 3. Rhodamine 6G and rhodamine 123 were dissolved in ethanol and the other antifungals were dissolved in DMSO.
Drug susceptibility was measured using disk assays on CSM-URA plates (containing 1.5% w/v agar). Yeast cells (200 μl ml of 5×10^6 cells/ml) were spread on the plates. 10 μl of drug solution or solvent control were spotted onto sterile Whatman paper disks on the pre-spread plates. The following amounts (nmoles) of drugs were applied to individual disks: fluconazole, 633 (Pfizer Ltd., Sandwich, Kent, United Kingdom); itraconazole, 0.23 (Janssen); miconazole, 0.42 (Janssen); cycloheximide, 0.71 (Sigma); rhodamine 6G, 100 (Sigma, Penrose, Auckland, N. Z.); rhodamine 123, 125 (Sigma); cerulenin 4.5 (Sigma); 5-flucytosine 100 (Sigma); amphotericin B, 97 (E. R. Squibb & Sons, Princeton, N.J.); nystatin 65 (Sigma). Agar plates were incubated at 30° C. for 48 h or until clear growth inhibition zones were visible.

[5] = tested on: AD-pABC3; assay: MIC in liquid microdilution assay, AD-pABC3 control; format: cell-based, S. cerevisiae; conditions: Saccharomyces cerevisiae; AD-pABC3 negative control strain
Experimental: as §1

[6] = tested on: S. cerevisiae AD1-8/CDR2; assay: MIC microdilution test, strain expressing Cdr2p; format: cell-based; conditions: Saccharomyces cerevisiae, AD18/CDR2, 30° C.
Experimental: as §1

[7] = tested on: AD-ERG11 (Erg11p); assay: MIC in liquid microdilution assay, AD-ERG11; format: cell-based, S. cerevisiae; conditions: Saccharomyces cerevisiae
Experimental: as §1

[8] = tested on: AD124567 cells; assay: Glucose-dependent rhodamine 6G efflux; format: cell-based, S. cerevisiae; conditions: 40 μM KN20, 5 minute preincubation
Experimental: De-energised cells were pre-loaded with rhodamine 6G, as described in Materials and methods for Example 4. The efflux of rhodamine 6G at 30° C. was followed by direct measurement of fluorescence in cell supernatants following glucose (2 mM) addition to cell suspensions. (A) The kinetics of energy-dependent rhodamine 6G efflux in strains AD1002 (▪) and AD1-8u^− (●). The fluorescence in supernatants of AD1002 cells in the absence of added glucose is also shown (◯). (B) The effect of KN20 concentration on the energy-dependent efflux of rhodamine 6G from AD124567 cells. The indicated concentrations of KN20 were added to AD124567 cells preloaded with rhodamine 6G, the cells were preincubated for 5 minutes at 30° C. and glucose added to commence rhodamine efflux.
A previously described method (Kolaczkowski, M et al. 1996) was adapted to measure rhodamine 6G (Sigma) efflux from whole cells. Yeast cells from exponentially growing cultures in YEPD (OD600 nm=0.5) were collected by centrifugation (3,000×g, 5 min, 20° C.) and washed three times with water. The washed cells were resuspended at a concentration of 0.5×10^6 to 1.0×10^7 cells per ml in HEPES-NaOH (50 mM, pH 7.0) containing 5 mM 2-deoxyglucose and 10 μM rhodamine 6G. […] The rhodamine 6G fluorescence of samples was measured using a Cary Eclipse spectrofluorimeter (Varian Inc, Victora Australia). […]

Molecule	MIC [1] [µg/mL]	MIC80 [2] [µg/mL]	MIC [3] [µg/mL]	resistance/sensitivity in disk diffusion assay [4]	MIC [5] [µg/mL]	MIC80 [6] [µg/mL]	MIC [7] [µg/mL]	inhibition of rhodamine 6G efflux [8] [%]
OC(Cn1cncn1)(Cn1cncn1)c1ccc(F)cc1F [fluconazole]	80 (≈ 261 µM)	0.625 (≈ 2.04 µM)	20 (≈ 65.3 µM)	modest resistance	0.5 (≈ 1.63 µM)	64 (≈ 209 µM)	2 (≈ 6.53 µM)	–
D-octapeptide NH2-Asn-Trp-Trp-Lys-Val-Arg-Arg-Arg-CONH2 with a single 4-methoxy-2,3,6-trimethylbenzenesulphonyl (Mtr) substituent on one tryptophan sidechain; Pdr5p inhibitor [KN20]	–	–	–	–	–	–	–	50
